Experimental data taken from article PMC11558128 (Advanced Science, 2024).
Positions of bridges follow the written chain, without caps; N, C: chain ends. Residues, ends and D or L forms follow the SMILES beside them.

Molecular target: T1, rKv4.2 (Rattus norvegicus, UniProt Q63881)
T1 construct: expressed in transfected cells; host or cells: HEK293T
T1 sequence (Q63881 1-630): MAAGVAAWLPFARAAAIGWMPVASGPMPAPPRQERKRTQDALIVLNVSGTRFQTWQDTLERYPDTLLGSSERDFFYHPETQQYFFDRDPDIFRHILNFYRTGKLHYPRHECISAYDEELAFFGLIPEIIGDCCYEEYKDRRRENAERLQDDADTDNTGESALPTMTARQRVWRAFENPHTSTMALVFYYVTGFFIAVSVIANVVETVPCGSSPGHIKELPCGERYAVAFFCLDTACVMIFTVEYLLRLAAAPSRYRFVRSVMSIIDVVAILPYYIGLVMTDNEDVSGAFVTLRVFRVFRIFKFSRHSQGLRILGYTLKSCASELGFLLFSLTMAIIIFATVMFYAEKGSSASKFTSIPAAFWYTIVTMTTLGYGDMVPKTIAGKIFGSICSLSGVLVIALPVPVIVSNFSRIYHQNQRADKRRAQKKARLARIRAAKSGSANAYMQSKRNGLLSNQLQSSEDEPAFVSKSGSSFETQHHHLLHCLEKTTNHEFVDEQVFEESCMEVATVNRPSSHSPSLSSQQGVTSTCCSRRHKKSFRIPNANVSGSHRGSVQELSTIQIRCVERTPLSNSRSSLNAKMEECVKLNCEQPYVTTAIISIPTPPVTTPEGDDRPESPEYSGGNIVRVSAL
Test: cell-based
Conditions: for IC50: whole-cell patch clamp, HEK293T, mean ± SEM, n = 3-8, SEM, read-out: IC50 on rKv4.2 WT

Row | SMILES | IC50 | inhibition of rKv4.2, in words (analogue compared with its parent toxin)
1 | CC(C)C[C@H](NC(=O)[C@H](Cc1ccc(O)cc1)NC(=O)[C@@H](NC(=O)[C@H](CCCCN)NC(=O)[C@@H]1CSSC[C@@H]2NC(=O)[C@H](CCC(=O)O)NC(=O)[C@H](CC(N)=O)NC(=O)[C@H](CCCCN)NC(=O)CNC(=O)[C@@H]3CCCN3C(=O)[C@H]([C@@H](C)O)NC(=O)[C@@H]3CSSC[C@H](NC(=O)[C@H](CC(C)C)NC(=O)[C@H](Cc4ccc(O)cc4)NC(=O)[C@H](CC(N)=O)NC(=O)[C@@H]4CCCN4C(=O)[C@H](CSSC[C@H](NC(=O)CN)C(=O)N[C@@H](CCCCN)C(=O)NCC(=O)N[C@@H](Cc4ccccc4)C(=O)NCC(=O)N[C@@H](CC(=O)O)C(=O)N[C@@H](CO)C(=O)N3)NC2=O)C(=O)N[C@@H](CO)C(=O)N[C@@H](CO)C(=O)N[C@@H](CCCCN)C(=O)N[C@@H](Cc2c[nH]cn2)C(=O)N[C@@H](CCCCN)C(=O)N[C@@H](Cc2c[nH]c3ccccc23)C(=O)N1)C(C)C)C(N)=O [A21L] (H-GCKGFGDSCTPGKNECCPNYLCSSKHKWCKVYL-NH2; disulfide 2-17, 9-22, 16-29) | 60 ± 10 nM | –
2 | CC(C)C[C@H](NC(=O)[C@H](Cc1ccc(O)cc1)NC(=O)[C@@H](NC(=O)[C@H](CCCCN)NC(=O)[C@@H]1CSSC[C@@H]2NC(=O)[C@H](CCC(=O)O)NC(=O)[C@H](CC(N)=O)NC(=O)[C@H](CCCCN)NC(=O)CNC(=O)[C@@H]3CCCN3C(=O)[C@H]([C@@H](C)O)NC(=O)[C@@H]3CSSC[C@H](NC(=O)[C@H](C(C)C)NC(=O)[C@H](Cc4ccc(O)cc4)NC(=O)[C@H](CC(N)=O)NC(=O)[C@@H]4CCCN4C(=O)[C@H](CSSC[C@H](NC(=O)CN)C(=O)N[C@@H](CCCCN)C(=O)NCC(=O)N[C@@H](Cc4ccccc4)C(=O)NCC(=O)N[C@@H](CC(=O)O)C(=O)N[C@@H](CO)C(=O)N3)NC2=O)C(=O)N[C@@H](CO)C(=O)N[C@@H](CO)C(=O)N[C@@H](CCCCN)C(=O)N[C@@H](Cc2c[nH]cn2)C(=O)N[C@@H](CCCCN)C(=O)N[C@@H](Cc2c[nH]c3ccccc23)C(=O)N1)C(C)C)C(N)=O [A21V] (H-GCKGFGDSCTPGKNECCPNYVCSSKHKWCKVYL-NH2; disulfide 2-17, 9-22, 16-29) | 1000 ± 144 nM | –
3 | CC(C)C[C@H](NC(=O)[C@H](Cc1ccc(O)cc1)NC(=O)[C@@H](NC(=O)[C@H](CCCCN)NC(=O)[C@@H]1CSSC[C@@H]2NC(=O)[C@H](CCC(=O)O)NC(=O)[C@H](CC(N)=O)NC(=O)[C@H](CCCCN)NC(=O)CNC(=O)[C@@H]3CCCN3C(=O)[C@H]([C@@H](C)O)NC(=O)[C@@H]3CSSC[C@H](NC(=O)[C@H](C)NC(=O)[C@H](Cc4ccc(O)cc4)NC(=O)[C@H](CC(N)=O)NC(=O)[C@@H]4CCCN4C(=O)[C@H](CSSC[C@H](NC(=O)CN)C(=O)N[C@@H](CCCCN)C(=O)NCC(=O)N[C@@H](CC(C)C)C(=O)NCC(=O)N[C@@H](CC(=O)O)C(=O)N[C@@H](CO)C(=O)N3)NC2=O)C(=O)N[C@@H](CO)C(=O)N[C@@H](CO)C(=O)N[C@@H](CCCCN)C(=O)N[C@@H](Cc2c[nH]cn2)C(=O)N[C@@H](CCCCN)C(=O)N[C@@H](Cc2c[nH]c3ccccc23)C(=O)N1)C(C)C)C(N)=O [F5L] (H-GCKGLGDSCTPGKNECCPNYACSSKHKWCKVYL-NH2; disulfide 2-17, 9-22, 16-29) | 10000 ± 4000 nM | –
4 | CC(C)C[C@H](NC(=O)[C@H](Cc1ccc(O)cc1)NC(=O)[C@@H](NC(=O)[C@H](CCCCN)NC(=O)[C@@H]1CSSC[C@@H]2NC(=O)[C@H](CCC(=O)O)NC(=O)[C@H](CC(N)=O)NC(=O)[C@H](CCCCN)NC(=O)CNC(=O)[C@@H]3CCCN3C(=O)[C@H]([C@@H](C)O)NC(=O)[C@@H]3CSSC[C@H](NC(=O)[C@H](C)NC(=O)[C@H](Cc4ccc(O)cc4)NC(=O)[C@H](CC(N)=O)NC(=O)[C@@H]4CCCN4C(=O)[C@H](CSSC[C@H](NC(=O)CN)C(=O)N[C@@H](CCCCN)C(=O)NCC(=O)N[C@@H](Cc4c[nH]c5ccccc45)C(=O)NCC(=O)N[C@@H](CC(=O)O)C(=O)N[C@@H](CO)C(=O)N3)NC2=O)C(=O)N[C@@H](CO)C(=O)N[C@@H](CO)C(=O)N[C@@H](CCCCN)C(=O)N[C@@H](Cc2c[nH]cn2)C(=O)N[C@@H](CCCCN)C(=O)N[C@@H](Cc2c[nH]c3ccccc23)C(=O)N1)C(C)C)C(N)=O [F5W] (H-GCKGWGDSCTPGKNECCPNYACSSKHKWCKVYL-NH2; disulfide 2-17, 9-22, 16-29) | 833 ± 81 nM | –
5 | CC(C)C[C@H](NC(=O)[C@H](Cc1ccc(O)cc1)NC(=O)[C@@H](NC(=O)[C@H](CCCCN)NC(=O)[C@@H]1CSSC[C@@H]2NC(=O)[C@H](CCC(=O)O)NC(=O)[C@H](CC(N)=O)NC(=O)[C@H](CCCCN)NC(=O)CNC(=O)[C@@H]3CCCN3C(=O)[C@H]([C@@H](C)O)NC(=O)[C@@H]3CSSC[C@H](NC(=O)[C@H](C)NC(=O)[C@H](Cc4ccc(O)cc4)NC(=O)[C@H](CC(N)=O)NC(=O)[C@@H]4CCCN4C(=O)[C@H](CSSC[C@H](NC(=O)[C@@H](N)Cc4ccccc4)C(=O)N[C@@H](CCCCN)C(=O)NCC(=O)N[C@@H](Cc4ccccc4)C(=O)NCC(=O)N[C@@H](CC(=O)O)C(=O)N[C@@H](CO)C(=O)N3)NC2=O)C(=O)N[C@@H](CO)C(=O)N[C@@H](CO)C(=O)N[C@@H](CCCCN)C(=O)N[C@@H](Cc2c[nH]cn2)C(=O)N[C@@H](CCCCN)C(=O)N[C@@H](Cc2c[nH]c3ccccc23)C(=O)N1)C(C)C)C(N)=O [G1F] (H-FCKGFGDSCTPGKNECCPNYACSSKHKWCKVYL-NH2; disulfide 2-17, 9-22, 16-29) | 176 ± 47 nM | –
6 | CC(C)C[C@H](NC(=O)[C@H](Cc1ccc(O)cc1)NC(=O)[C@@H](NC(=O)[C@H](CCCCN)NC(=O)[C@@H]1CSSC[C@@H]2NC(=O)[C@H](CCC(=O)O)NC(=O)[C@H](CC(N)=O)NC(=O)[C@H](CCCCN)NC(=O)[C@H](CCC(=O)O)NC(=O)[C@@H]3CCCN3C(=O)[C@H]([C@@H](C)O)NC(=O)[C@@H]3CSSC[C@H](NC(=O)[C@H](C)NC(=O)[C@H](Cc4ccc(O)cc4)NC(=O)[C@H](CC(N)=O)NC(=O)[C@@H]4CCCN4C(=O)[C@H](CSSC[C@H](NC(=O)CN)C(=O)N[C@@H](CCCCN)C(=O)NCC(=O)N[C@@H](Cc4ccccc4)C(=O)NCC(=O)N[C@@H](CC(=O)O)C(=O)N[C@@H](CO)C(=O)N3)NC2=O)C(=O)N[C@@H](CO)C(=O)N[C@@H](CO)C(=O)N[C@@H](CCCCN)C(=O)N[C@@H](Cc2c[nH]cn2)C(=O)N[C@@H](CCCCN)C(=O)N[C@@H](Cc2c[nH]c3ccccc23)C(=O)N1)C(C)C)C(N)=O [G12E] (H-GCKGFGDSCTPEKNECCPNYACSSKHKWCKVYL-NH2; disulfide 2-17, 9-22, 16-29) | 359 ± 82 nM | –
7 | CC(C)C[C@@H]1NC(=O)[C@H](Cc2ccc(O)cc2)NC(=O)[C@H](CC(N)=O)NC(=O)[C@H](CCCCN)NC(=O)[C@@H]2CSSC[C@H](NC(=O)CNC(=O)[C@@H](N)CCCCN)C(=O)N[C@@H](CCCCN)C(=O)NCC(=O)N[C@@H](Cc3ccccc3)C(=O)NCC(=O)N[C@@H](CC(=O)O)C(=O)N[C@@H](CO)C(=O)N[C@H]3CSSC[C@H](NC1=O)C(=O)N[C@@H](CO)C(=O)N[C@@H](CO)C(=O)N[C@@H](C)C(=O)N[C@@H](Cc1c[nH]cn1)C(=O)N[C@@H](CCCCN)C(=O)N[C@@H](Cc1c[nH]c4ccccc14)C(=O)N[C@H](C(=O)N[C@@H](CCCCN)C(=O)N[C@H](C(=O)N[C@@H](Cc1ccc(O)cc1)C(=O)N[C@@H](CC(C)C)C(=O)N[C@H](C(N)=O)C(C)C)C(C)C)CSSC[C@H](NC(=O)[C@H](CCC(=O)O)NC(=O)[C@H](CC(N)=O)NC(=O)[C@H](CCCCN)NC(=O)CNC(=O)[C@@H]1CCCN1C(=O)[C@H]([C@@H](C)O)NC3=O)C(=O)N2 [HNTX-III-H4-K25A] (H-KGCKGFGDSCTPGKNECCKNYLCSSAHKWCKVYLV-NH2; disulfide 3-18, 10-23, 17-30; N-terminus and C-terminus assumed) | – | disappeared
8 | CC(C)C[C@H](NC(=O)[C@H](Cc1ccc(O)cc1)NC(=O)[C@@H](NC(=O)[C@H](CCCCN)NC(=O)[C@@H]1CSSC[C@@H]2NC(=O)[C@H](CCC(=O)O)NC(=O)[C@H](CC(N)=O)NC(=O)[C@H](CCCCN)NC(=O)CNC(=O)[C@@H]3CCCN3C(=O)[C@H]([C@@H](C)O)NC(=O)[C@@H]3CSSC[C@H](NC(=O)[C@H](C)NC(=O)[C@H](Cc4ccc(O)cc4)NC(=O)[C@H](CCCCN)NC(=O)[C@@H]4CCCN4C(=O)[C@H](CSSC[C@H](NC(=O)CN)C(=O)N[C@@H](CCCCN)C(=O)NCC(=O)N[C@@H](Cc4ccccc4)C(=O)NCC(=O)N[C@@H](CC(=O)O)C(=O)N[C@@H](CO)C(=O)N3)NC2=O)C(=O)N[C@@H](CO)C(=O)N[C@@H](CO)C(=O)N[C@@H](CCCCN)C(=O)N[C@@H](Cc2c[nH]cn2)C(=O)N[C@@H](CCCCN)C(=O)N[C@@H](Cc2c[nH]c3ccccc23)C(=O)N1)C(C)C)C(N)=O [N19K] (H-GCKGFGDSCTPGKNECCPKYACSSKHKWCKVYL-NH2; disulfide 2-17, 9-22, 16-29) | 475 ± 103 nM | –
